Patent publication US20130345215A1, “PYRAZOLOPYRIMIDONE AND PYRAZOLOPYRIDONE INHIBITORS OF TANKYRASE” (Genentech, Inc., priority 2012, published 2013)

What was measured:
tankyrase 2 (TNKS2) = target: T1, tankyrase 2 (TNKS2) (Homo sapiens, UniProt Q9H2K2); assay: μHTS-TNKS-IWR2 TR-FRET Binding Assay (Example 118), His6-TNKS2 substituted; details: procedure in Example 118 with His6-TNKS2
T1 construct: His6-tankyrase 2 (construct: 934-1166) (His6-TNKS2)
Protocol: (§1) μHTS-TNKS-IWR2 TR-FRET Binding Assay (10 μL/well in BD1536-well plate, a single point)
(§2) Reagents and Stock Solutions
Tankyrase 1 (TNKS1): 184.3 μM=5.2 mg/mL His6-TNKS1, MW=28.2 KDa (construct: 1088-1327, 1266M) in 20 mM Tris pH 8, 150 mM NaCl, 10% glycerol, and 0.5 mM TCEP. Alternatively, His6-tankyrase 2 (construct: 934-1166) (His6-TNKS2) or His6-PARP1 (full length) can be substituted for His6-TNKS 1.
(§3) Biotin-4-((1S,2R,6S,7R)-3,5-Dioxo-4-aza-tricyclo[5.2.1.0*2,6]dec-8-en-4-yl)-N-(4-methyl-quinolin-8-yl)-benzamide (Biotin-IWR2): 10 mM Biotin-IWR2 stock in DMSO, stored at −20° C.
Positive control: 10 mM 2-(4-Trifluoromethyl-phenyl)-3,5,7,8-tetrahydro-thiopyrano[4,3-d]pyrimidin-4-one (XAV939) in DMSO, stored at −20° C.
APC-anti-His Ab: 8.50 μM SL-APC, 8.26 μM anti-6His antibody-SureLight APC (Columia Bioscience, Catalog Number D3-1711, Lot Number N01010-AAH04)
Assay plate: BD 1536-well, clear/black plate (Catalog Number 353255)
(§4) Assay buffer 1a (AB1a) for TNKS dilution: 50 mM Tris, pH 7.4, 100 mM sodium chloride solution, 1 mM magnesium chloride solution, 1 mM DL-dithiothreitol solution, 0.2 mg/mL bovine serum albumin solution, 0.025% NP-40.
(§5) Assay buffer 1b (AB1b) for Biotin-IWR2 dilution: 50 mM Tris, pH 7.4, 100 mM sodium chloride solution, 1 mM magnesium chloride solution, 1 mM DL-dithiothreitol solution, 0.2 mg/mL bovine serum albumin solution, 0.05% NP-40
(§6) Assay buffer 1c (AB1c) for compound dilution: 50 mM Tris, pH 7.4, 100 mM sodium chloride solution, 1 mM magnesium chloride solution, 1 mM DL-dithiothreitol solution, 0.2 mg/mL bovine serum albumin solution
(§7) Assay buffer 2 (AB2) for Eu/APC: 50 mM Tris, pH 7.4, 100 mM sodium chloride solution, 1 mM magnesium chloride solution, 0.2 mg/mL bovine serum albumin solution
(§8) Reagent Stock Solution Preparation
Prepare Biotinylated IWR2 stock solution (3.33× stock) for TOTL and compound wells: 200 nM Biotin-IWR2 in 5% DMSO/AB1b buffer
(§9) Prepare BLANK well stock solution: 5% DMSO/AB1b buffer
Prepare POSITIVE CONTROL well stock solution (3.33× stock): 200 nM XAV939 in 200 nM Biotin-IWR2/5% DMSO/AB1b buffer
(§10) Prepare TNKS 1 stock solution (5× stock): 300 nM TNKS in AB1a buffer. (Alternatively, use TNKS2 or PARP1 stock solutions.)
Prepare Eu/APC stock solution (5× stock): 3.5 nM Eu-SA/50 nM APC-His6Ab in AB2 buffer.
Add 25 μL/well 1.5% DMSO/AB1c buffer in each compound well to the compound concentration at 74 μM in 8.8% DMSO/AB1c buffer or in the 2 μL DMSO CONTROL wells (BLANK, TOTAL and POSITIVE wells) in the compound plate. Transfer 3 μL/well of above solution (solution 1,2,3) to an empty assay plate (BD1536-well plate) as follows: • TOTAL and cpd wells: Solution 1 (Biotin-IWR2): • BLANK wells: Solution 2 (No Biotin-IWR2): • POSITIVE CONTROL wells: Solution 3 (Biotin-IWR2+XAV939)
(§11) Transfer 3 μL/well of the above diluted compound solutions or compound dilution buffer to the above assay plate. Add 2 μL/well of 300 nM TNKS stock solution (4) to every well in the above assay plate. Centrifuge the assay plate at 2100 rpm for 2 min. Incubate the assay plate at 26° C. for 30 minutes. Add 2 μL/well 3.5 nMEu/50 nM APC solution (5) to every well in the above assay plate. Centrifuge the assay plate at 2100 rpm for 2 min. Incubate the assay plate at 26° C. for 60 min. Read the assay plate immediately at excitation wavelength of 330 nm and emission wavelength of 615 and 665 nM in time resolved fluorescence mode.
XAV939 (+ve control): 60 nM at ˜70% Inhibition
General Library compounds: 22.23 μM in 4% DMSO

Tankyrase 1 (TNKS1) = target: T2, Tankyrase 1 (TNKS1) (Homo sapiens, UniProt O95271); assay: μHTS-TNKS-IWR2 TR-FRET Binding Assay (Example 118), His6-TNKS1
T2 construct: His6-TNKS1, MW=28.2 KDa (construct: 1088-1327, 1266M)
Protocol: as §1, §2, §3
(XAV939) in DMSO, stored at −20° C.
as §4, §5, §6, §7, §8, §9, §10
Transfer 3 μL/well of above solution (solution 1,2,3) to an empty assay plate (BD1536-well plate) as follows: • TOTAL and cpd wells: Solution 1 (Biotin-IWR2): • BLANK wells: Solution 2 (No Biotin-IWR2): • POSITIVE CONTROL wells: Solution 3 (Biotin-IWR2+XAV939)
as §11, with “min.” for “min. Read the assay plate immediately at excitation wavelength of 330 nm and emission wavelength of 615 and 665 nM in time resolved fluorescence mode.”

T2 sequence (O95271 1088-1327): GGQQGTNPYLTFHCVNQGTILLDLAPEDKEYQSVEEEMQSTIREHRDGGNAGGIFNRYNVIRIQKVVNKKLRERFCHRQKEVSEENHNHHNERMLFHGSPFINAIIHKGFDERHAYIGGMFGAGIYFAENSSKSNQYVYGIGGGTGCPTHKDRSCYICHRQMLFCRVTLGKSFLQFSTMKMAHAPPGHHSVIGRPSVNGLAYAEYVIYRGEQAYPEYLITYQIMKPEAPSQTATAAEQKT
T1 sequence (Q9H2K2 934-1166): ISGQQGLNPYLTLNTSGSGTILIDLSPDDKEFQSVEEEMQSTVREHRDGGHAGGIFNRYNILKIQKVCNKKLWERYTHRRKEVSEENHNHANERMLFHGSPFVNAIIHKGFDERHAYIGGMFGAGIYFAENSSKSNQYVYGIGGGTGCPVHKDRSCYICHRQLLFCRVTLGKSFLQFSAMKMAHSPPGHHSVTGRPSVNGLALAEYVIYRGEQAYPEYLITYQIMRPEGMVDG

SMILES	IC50 (tankyrase 2 (TNKS2))	IC50 (Tankyrase 1 (TNKS1))
COCCOc1cc(F)c(N2CCN(c3cc4c(cnn4C)c(=O)[nH]3)CC2)c(F)c1 [Compound I-53, 6-[4-[2 6-difluoro-4-(2-methoxyethoxy)phenyl]piperazin-1-yl]-1-methyl-5H-pyrazolo[4 3-c]pyridin-4-one]	19.3 nM	26 nM
Cn1ncc2c(=O)[nH]c(N3CCC(c4ccc(C(F)(F)F)cc4)CC3)nc21 [Compound I-6, 1-methyl-6-[4-[4-(trifluoromethyl)phenyl]-1-piperidyl]-5H-pyrazolo[3 4-d]pyrimidin-4-one]	68.3 nM	66 nM
Cn1ncc2c(=O)[nH]c(N3CCN(c4ccc(F)cc4S(C)(=O)=O)CC3)cc21 [Compound I-25, 6-[4-(4-fluoro-2-methylsulfonyl-phenyl)piperazin-1-yl]-1-methyl-5H-pyrazolo[4 3-c]pyridin-4-one]	45.1 nM	44 nM
Cn1ncc2c(=O)[nH]c(N3CCN(C4CCS(=O)(=O)C4)CC3)nc21 (centres unmarked) [Compound I-36, 6-[4-(1 1-dioxothiolan-3-yl)piperazin-1-yl]-1-methyl-5H-pyrazolo[3 4-d]pyrimidin-4-one]	1600 nM	1930 nM
O=c1[nH]c(N2CCC(c3ccc(F)cc3)CC2)nc2[nH]ncc12 [Compound I-9, 6-[4-(4-fluorophenyl)-1-piperidyl]-1 5-dihydropyrazolo[3 4-d]pyrimidin-4-one]	664 nM	374 nM
Cn1ncc2c(=O)[nH]c(N3CCN(c4c(Cl)cccc4Cl)CC3)nc21 [Compound I-42, 6-[4-(2 6-dichlorophenyl)piperazin-1-yl]-1-methyl-5H-pyrazolo[3 4-d]pyrimidin-4-one]	26.3 nM	24 nM
Cn1ncc2c(=O)[nH]c(N3CCC(C#N)(c4ccccc4)CC3)nc21 [Compound I-24, 1-(1-methyl-4-oxo-5H-pyrazolo[3 4-d]pyrimidin-6-yl)-4-phenyl-piperidine-4-carbonitrile]	33.3 nM	27 nM
COCCOc1ccc(N2CCN(c3nc4c(cnn4C)c(=O)[nH]3)CC2)c(F)c1 [Compound I-30, 6-[4-[2-fluoro-4-(2-methoxyethoxy)phenyl]piperazin-1-yl]-1-methyl-5H-pyrazolo[3 4-d]pyrimidin-4-one]	234 nM	13 nM
CCOC(=O)c1ccc(N2CCN(c3nc4c(cnn4C)c(=O)[nH]3)CC2)cc1 [Compound I-41, ethyl 4-[4-(1-methyl-4-oxo-5H-pyrazolo[3 4-d]pyrimidin-6-yl)piperazin-1-yl]benzoate]	135 nM	107 nM
O=c1[nH]c(N2CCC(c3ccc(F)cc3)CC2)cc2[nH]ncc12 [Compound I-11, 6-[4-(4-fluorophenyl)-1-piperidyl]-1 5-dihydropyrazolo[4 3-c]pyridin-4-one]	159 nM	108 nM
Cn1ncc2c(=O)[nH]c(N3CCC(O)(c4ccccn4)CC3)nc21 [Compound I-35, 6-[4-hydroxy-4-(2-pyridyl)-1-piperidyl)-1-methyl-5H-pyrazolo[3 4-d]pyrimidin-1-one]	94.5 nM	69 nM
Cn1ncc2c(=O)[nH]c(N3CCN(c4ccc(C(C)(C)O)cc4F)CC3)nc21 [Compound I-44, 6-[4-[2-fluoro-4-(1-hydroxy-1-methyl-ethyl)phenyl]piperazin-1-yl]-1-methyl-5H-pyrazolo[3 4-d]pyrimidin-4-one]	95.3 nM	34 nM
Cn1ncc2c(=O)[nH]c(N3CCN(c4ccc(F)c(C(F)(F)F)c4)CC3)nc21 [Compound I-39, 6-[4-(4-fluoro-3-(trifluoromethyl)phenyl]piperazin-1-yl]-1-methyl-5H-pyrazolo[3 4-d]pyrimidin-4-one]	303 nM	331 nM
Cn1ncc2c(=O)[nH]c(N3CCN(c4ccc(S(N)(=O)=O)cc4F)CC3)nc21 [Compound I-48, 3-fluoro-4-[4-(1-methyl-4-oxo-5H-pyrazolo[3 4-d]pyrimidin-6-yl)piperazin-1-yl]benzenesulfonamide]	49.2 nM	34 nM
CCC(=O)c1cc(F)c(N2CCN(c3nc4c(cnn4C)c(=O)[nH]3)CC2)c(F)c1 [Compound I-45, 6-[4-(2 6-difluoro-4-propanoyl-phenyl)piperazin-1-yl]-1-methyl-5H-pyrazolo[3 4-d]pyrimidin-4-one]	33 nM	28 nM
Cn1ncc2c(=O)[nH]c(N3CCN(c4nccs4)CC3)nc21 [Compound I-38, 1-methyl-6-(4-thiazol-2-ylpiperazin-1-yl)-5H-pyrazolo[3 4-d]pyrimidin-4-one]	598 nM	504 nM
Cn1ncc2c(=O)[nH]c(N3CCN(c4ccc(F)cc4F)CC3)cc21 [Compound I-16, 6-[4-(2 4-difluorophenyl)piperazin-1-yl]-1-methyl-5H-pyrazolo[4 3-c]pyridin-4-one]	47.4 nM	48 nM
Cn1ncc2c(=O)[nH]c(N3CCN(c4ncccc4C(F)(F)F)CC3)nc21 [Compound I-20, 1-methyl-6-[4-[3-(trifluoromethyl)-2-pyridyl]piperazin-1-yl]-5H-pyrazolo[3 4-d]pyrimidin-4-one]	43.2 nM	31 nM
Cn1ncc2c(=O)[nH]c(N3CCN(c4ccc(C(=O)O)cc4F)CC3)nc21 [Compound I-40, 3-fluoro-4-[4-(1-methyl-4-oxo-5H-pyrazolo[3 4-d]pyrimidin-6-yl)piperazin-1-yl]benzoic acid]	39.4 nM	41 nM
Cn1ncc2c(=O)[nH]c(-c3ccc(C(F)(F)F)nc3)nc21 [Compound I-27, 1-methyl-6-[6-(trifluoromethyl)-3-pyridyl)-5H-pyrazolo[3 4-d]pyrimidin-4-one]	428 nM	385 nM
Cn1ncc2c(=O)[nH]c(N3CCC(C#N)(c4ccccn4)CC3)nc21 [Compound I-52, 1-(1-methyl-4-oxo-5H-pyrazolo[3 4-d]pyrimidin-6-yl)-4-(2-pyridyl)piperidine-4-carbonitrile]	54.5 nM	47 nM
Cn1ncc2c(=O)[nH]c(N3CCC(O)(c4ccccc4)CC3)nc21 [Compound I-23, 6-(4-hydroxy-4-phenyl-1-piperidyl)-1-methyl-5H-pyrazolo[3 4-d]pyrimidin-4-one]	66.8 nM	57 nM
